According to patent publication US20140199410A1, “EDIBLE BROWN ALGAE EXTRACT WITH A LOW IODINE CONTENT” (ALGUES ET MER, priority 2011, published 2014):

Target: T1, alpha-amylase (Homo sapiens, UniProt P0DUB6)
T1 sequence (P0DUB6 16-511): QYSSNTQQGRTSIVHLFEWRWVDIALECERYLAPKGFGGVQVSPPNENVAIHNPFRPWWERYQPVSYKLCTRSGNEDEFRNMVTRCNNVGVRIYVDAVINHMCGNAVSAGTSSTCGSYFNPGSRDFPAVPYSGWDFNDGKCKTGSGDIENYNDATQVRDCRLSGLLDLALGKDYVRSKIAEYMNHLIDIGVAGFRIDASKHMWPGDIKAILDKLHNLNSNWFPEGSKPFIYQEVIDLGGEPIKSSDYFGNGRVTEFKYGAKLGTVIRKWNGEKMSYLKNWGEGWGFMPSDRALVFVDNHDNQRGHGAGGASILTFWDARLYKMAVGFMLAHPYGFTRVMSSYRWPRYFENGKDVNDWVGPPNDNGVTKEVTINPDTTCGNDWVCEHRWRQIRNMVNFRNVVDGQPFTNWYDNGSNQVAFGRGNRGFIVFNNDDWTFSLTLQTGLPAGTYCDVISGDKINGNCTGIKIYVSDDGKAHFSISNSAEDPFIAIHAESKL
Test: In vitro inhibition of alpha-amylase (colorimetric, starch to maltose)
Type: biochemical
Details: read-out: Inhibitory Activity Alpha-amylase
Experimental: The methods for determining enzyme activities are conventional colorimetric methods.
The principle is as follows: • starch is incubated with an enzyme (for example human salivary amylase).

C[C@H]1O[C@H](O[C@H]2[C@H](O)[C@@H](O)[C@@H](O[C@H]3[C@H](O)[C@@H](O)C(O)O[C@@H]3CO)O[C@@H]2CO)[C@H](O)[C@@H](O)[C@@H]1N[C@H]1C=C(CO)[C@@H](O)[C@H](O)[C@H]1O (stereo partly shown) [Glucor ™, Acarbose] showed an inhibition at 1000 µg/mL of 93%.
